Earlier results on one compound are cited in patent US9468597B1, “Stabilized L-ascorbic acid skin serum” (Dr. Perry Skindustries, LLC, priority 2013, dated 2016).

One series relates to skin. The following applies: 18% or 10% concentration placed under a patch for 4 days.
For series [1] the following is noted: without exposure to light.

Turning to `O=C1O[C@H]([C@@H](O)CO)C(O)=C1O` [vitamin C, L-ascorbic acid], the skin irritation entry in the series with skin is given as “Neither an 18% nor a 10% concentration irritated the skin”. Moreover, the half-life entry in series [1] is “about 4 day”.
